According to BindingDB's records for doi:10.1021/jm050859x (Amgen, 2006):

molecular target: RNA-directed RNA polymerase (Hepacivirus hominis, UniProt Q8JXU8); assay: Inhibitory activity against HCV delta 21 NS5b RNA polymerase
Sequence (Q8JXU8 whole entry): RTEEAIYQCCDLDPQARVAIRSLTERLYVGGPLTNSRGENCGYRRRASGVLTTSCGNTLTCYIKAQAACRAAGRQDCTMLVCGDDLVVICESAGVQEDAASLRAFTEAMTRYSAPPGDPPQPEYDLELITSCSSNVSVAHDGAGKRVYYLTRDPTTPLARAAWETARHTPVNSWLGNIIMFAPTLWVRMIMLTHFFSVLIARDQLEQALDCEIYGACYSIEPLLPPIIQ

Row | SMILES | IC50 [µM]
1 | O=S(=O)(Nn1c(O)c(Cc2ccc(Cl)c(Cl)c2)sc1=S)c1ccccc1 [5-(3,4-dichlorobenzyl)-3-(benzenesulfonylamino)-4-oxo-2-thionothiazolidine] | 11
2 | C=C(c1ccc(Cl)c(Cl)c1)c1sc(=S)n(NS(=O)(=O)c2ccccc2)c1O [5-(3,4-dichlorophenyl-1-ethylene)-3-(benzenesulfonylamino)-4-oxo-2-thionothiazolidine] | 0.6
3 | O=C1N=C(S)SC1=Cc1ccc(Cl)cc1 [5-(4-chlorobenzylidene)-2-thioxothiazolidin-4-one] | > 30
4 | O=C(NN1C(=O)C(=Cc2ccc(Cl)cc2)SC1=S)c1ccccc1 [5-(4-chlorobenzylidene)-3-(benzoylamino)-4-oxo-2-thionothiazolidine] | > 30
5 | O=C1C(=Cc2ccc(-c3cc(C(F)(F)F)ccc3Cl)o2)SC(=S)N1NS(=O)(=O)c1ccccc1 [5-(5-[2-chloro-5-(trifluoromethyl)phenyl]-furan-2-methylene)-3-(benzenesulfonylamino)-4-oxo-2-thionothiazolidine] | 0.1
